Laboratory results published in patent publication US20230219951A1, “PYRIDINE-PYRIMIDINE DERIVATIVE, PREPARATION METHOD THEREFOR AND PHARMACEUTICAL USE THEREOF” (Jiangsu Hengrui Pharmaceuticals Co., Ltd., priority 2020, published 2023).

Experiments:
[1] = molecular target: T1, interaction between the KRAS protein subtype G12D and the SOS1 protein (Homo sapiens, UniProt Q07889); assay: Inhibition of the interaction between KRAS G12D and SOS1 protein (AlphaLISA/AlphaScreen); format: binding; conditions: KRAS G12D + GST-TEV-SOS1(564-1049) + GDP
T1 construct: GST-TEV-SOS1(564-1049) (Viva Biotech, SOS1-191010); purchased SOS1: Viva Biotech; KRAS: Shanghai Panchao Biotechnology Co., Ltd. SOS1-191010
T1 sequence (Q07889 564-1049): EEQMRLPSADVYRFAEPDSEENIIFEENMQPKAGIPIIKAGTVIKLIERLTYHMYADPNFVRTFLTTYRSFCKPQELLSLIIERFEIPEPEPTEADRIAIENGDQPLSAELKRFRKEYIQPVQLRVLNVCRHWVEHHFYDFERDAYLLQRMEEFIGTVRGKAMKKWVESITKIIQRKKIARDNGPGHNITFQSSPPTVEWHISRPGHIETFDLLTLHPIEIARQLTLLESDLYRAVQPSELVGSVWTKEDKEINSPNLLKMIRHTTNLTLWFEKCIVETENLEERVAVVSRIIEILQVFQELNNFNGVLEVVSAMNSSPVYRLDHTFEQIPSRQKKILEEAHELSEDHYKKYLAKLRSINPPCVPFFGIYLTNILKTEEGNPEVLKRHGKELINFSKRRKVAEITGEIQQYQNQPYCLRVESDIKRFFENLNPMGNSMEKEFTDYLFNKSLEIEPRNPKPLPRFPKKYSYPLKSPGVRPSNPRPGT
In short: (§1)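 Biotinylated KRAS G12D or G12V preincubated with SOS1 and GDP, then with compound (10-point 5-fold series from 40 μM) for 30 min at room temperature in PBS, 0.1% BSA, 0.05% Tween 20. Glutathione acceptor/streptavidin donor beads added for 60 min; Alpha signal read and IC50 calculated.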

[2] = molecular target: T2, interaction between the KRAS protein subtype G12V and the SOS1 protein (Homo sapiens, UniProt Q07889); assay: Inhibition of the interaction between KRAS G12V and SOS1 protein (AlphaLISA/AlphaScreen); format: binding; conditions: KRAS G12V + GST-TEV-SOS1(564-1049) + GDP
T2 construct: GST-TEV-SOS1(564-1049) (Viva Biotech, SOS1-191010); purchased SOS1: Viva Biotech; KRAS: Shanghai Panchao Biotechnology Co., Ltd. SOS1-191010
T2 sequence (Q07889 564-1049): T1 sequence (Q07889 564-1049)
In short: as §1

[3] = molecular target: T3, hERG potassium channel (Homo sapiens, UniProt Q12809); assay: Manual patch-clamp of hERG potassium currents in CHO cells stably expressing hERG channel; format: cell-based; conditions: read-out: IC50(μM), blocking effect on the hERG potassium ion channel
T3 construct: host or cells: CHO
Description: This example is intended to test the blocking effect of the compounds of the present disclosure on hERG potassium currents in a stable cell strain transfected with an hERG potassium channel by a manual patch-clamp assay.
The cells used in this experiment were from a CHO cell line (provided by Sophion Bioscience, Denmark) transfected with hERG cDNA and stably expressing hERG channel at cell passage number of P5. Cells were cultured in a medium containing the following components (all from Invitrogen): Ham's F12 medium, 10% (v/v) inactivated fetal bovine serum, […] hygromycin B, and […] geneticin. CHO hERG cells were grown in a culture dish containing the above culture medium and cultured in an incubator at 37° C. with 5% CO2. […]
In this experiment, a manual patch-clamp system (HEKA EPC-10 signal amplifier and digital conversion system, purchased from HEKA Electronics, Germany) was used for whole cell current recording. […] After the hERG potassium currents recorded in the above step were stable under the continuous extracellular fluid perfusion in the recording chamber, the drug to be tested could be added for perfusion until the inhibition effect of the drug on the hERG current reached a stable state. […]
The blocking effect of the compound of the present disclosure on hERG potassium currents was determined by the above test.

T3 sequence (Q12809 whole entry): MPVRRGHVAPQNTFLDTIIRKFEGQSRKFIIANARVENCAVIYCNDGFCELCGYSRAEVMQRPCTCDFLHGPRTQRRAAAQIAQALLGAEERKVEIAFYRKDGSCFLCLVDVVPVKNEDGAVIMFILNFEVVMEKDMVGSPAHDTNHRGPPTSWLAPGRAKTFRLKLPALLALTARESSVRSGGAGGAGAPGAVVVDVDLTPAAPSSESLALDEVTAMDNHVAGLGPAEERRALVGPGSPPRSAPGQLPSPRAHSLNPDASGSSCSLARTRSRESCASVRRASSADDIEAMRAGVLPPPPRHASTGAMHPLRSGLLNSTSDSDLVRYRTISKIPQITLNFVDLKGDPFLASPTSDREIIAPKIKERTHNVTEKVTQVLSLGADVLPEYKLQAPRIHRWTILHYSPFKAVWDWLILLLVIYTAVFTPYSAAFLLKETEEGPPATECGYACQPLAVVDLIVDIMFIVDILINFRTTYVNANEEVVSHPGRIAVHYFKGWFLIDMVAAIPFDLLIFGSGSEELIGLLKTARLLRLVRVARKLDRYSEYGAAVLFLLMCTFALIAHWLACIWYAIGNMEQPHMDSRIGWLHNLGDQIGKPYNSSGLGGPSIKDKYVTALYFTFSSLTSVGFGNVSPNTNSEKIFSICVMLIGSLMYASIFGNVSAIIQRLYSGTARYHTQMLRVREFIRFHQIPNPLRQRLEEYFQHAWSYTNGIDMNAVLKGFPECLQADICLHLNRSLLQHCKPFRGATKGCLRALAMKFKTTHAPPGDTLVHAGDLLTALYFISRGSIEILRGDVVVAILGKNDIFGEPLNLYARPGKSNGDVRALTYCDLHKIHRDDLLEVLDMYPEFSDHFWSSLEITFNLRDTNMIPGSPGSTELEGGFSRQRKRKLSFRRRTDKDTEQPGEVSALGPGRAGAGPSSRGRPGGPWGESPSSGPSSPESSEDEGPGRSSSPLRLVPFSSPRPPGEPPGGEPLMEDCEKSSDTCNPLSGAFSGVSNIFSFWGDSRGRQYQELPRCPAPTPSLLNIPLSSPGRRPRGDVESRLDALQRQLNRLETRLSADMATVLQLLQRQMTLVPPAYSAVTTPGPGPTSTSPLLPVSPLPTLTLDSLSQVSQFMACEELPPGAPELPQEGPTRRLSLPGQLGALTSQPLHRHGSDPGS

SMILES: Cc1nc(N[C@H](C)c2cccc(C(F)F)c2F)c2cc([C@]3(O)CC[C@@H](O)CC3)c(=O)[nH]c2n1 [Example 18-p1, 4-(((R)-1-(3-(difluoromethyl)-2-fluorophenyl)ethyl)amino)-6-((1s,4S)-1,4-dihydroxycyclohexyl)-2-methylpyrido[2,3-d]pyrimidin-7(8H)-one]
- IC50 [1]: 20 nM
- IC50 [2]: 67 nM
- IC50 [3]: > 30 µM
